Test results published in PubChem BioAssay AID2839 (Southern Research Specialized Biocontainment Screening …, 2010).
Calls of active or inactive are those of the source. No rule for the calls is given here.

Tests used:
[1] = system: Salmonella Typhi PhoP-promoter GFP reporter, low Mg2+, 4 h; assay: PhoP promoter GFP reporter reduction in Typhi – purified and synthesized compounds, set 2, PhoP regulon inhibitor project, dose response (AID 2839)
[2] = as above; conditions: Salmonella Typhi PhoP-promoter GFP reporter, low Mg2+, 4 h; at 150 µM (top of the series)

Structure (SMILES)	IC50 [1] [µM]	inhibition [2]
CCCCn1c(NS(=O)(=O)c2ccccc2)c(S(=O)(=O)c2ccc(C)cc2)c2nc3ccccc3nc21	< 0.15	
O=C(Nc1cccnc1)c1cc(Br)c(Br)s1	< 0.15	
CCn1cc(C(=O)O)c(=O)c2cc(F)c(N3CCN(C(=S)NC)CC3)cc21		4.25% (inactive)
CCn1cc(C(=O)O)c(=O)c2cc(F)c(N3CCN(C(=S)NCc4ccccc4)CC3)cc21		9.85% (inactive)
O=C1C2=C(Nc3ccccc3SC2c2ccccc2C(F)(F)F)c2ccccc21 (stereo not drawn)		7.29% (inactive)
O=S(=O)(Nc1c(S(=O)(=O)c2ccccc2)c2nc3ccccc3nc2n1C1CCCCC1)c1ccccc1	< 0.15	
COc1ccc(NC(=O)c2cc(Br)c(Br)s2)cn1	< 0.15	
O=C1C2=C(Nc3ccccc3SC2c2ccsc2)c2ccccc21 (stereo not drawn)	34.5	
Cc1ccc(CN2CCCN(C(=O)Nc3ccc(Cl)cc3)C2)cc1	46.2	
COc1ccc(NC(=S)NCc2ccc(Cl)cc2)cc1		8.24% (inactive)
O=C(Nc1ccc(Cl)cc1)N1CCCN(Cc2ccccc2F)C1	31.3	
COc1ccccc1Nc1nc(NCc2ccco2)c2ccccc2n1	< 0.15	
COc1c(N2CCN(C(=S)NCc3ccccc3)C(C)C2)c(F)cc2c(=O)c(C(=O)O)cn(C3CC3)c12 (stereo not drawn)	79.1	
S=C(NCc1ccc(Cl)cc1)Nc1ccc(Cl)cc1		22.4% (inactive)
CCCCn1c(NS(=O)(=O)c2ccc(C)cc2)c(S(=O)(=O)c2ccccc2)c2nc3ccccc3nc21	< 0.15	
COc1cccc(C2Sc3ccccc3NC3=C2C(=O)c2ccccc23)c1 (stereo not drawn)	33.4	
CCn1cc(C(=O)O)c(=O)c2cc(F)c(N3CCN(C(=S)NC(=O)c4ccccc4Cl)CC3)cc21	20.5	
N#C/C(=C\c1ccc[nH]1)C(=O)NC1CC1	60.4	
S=C(NCc1ccc(Cl)cc1)Nc1ccc(Br)cc1		6.57% (inactive)
CN1CCc2nc(SCC(=O)Nc3cccc(F)c3)c(C#N)c(-c3cccs3)c2C1	0.05	
O=[N+]([O-])c1ccc(CNC2CCCc3ccccc32)cc1 (stereo not drawn)	16.6	
Cc1cccc(NC(=S)NCc2ccc(Cl)cc2)c1		16.8% (inactive)
Fc1ccccc1NC(=S)NCc1ccc(Cl)cc1		-0.65% (inactive)
O=C(Nc1ccccc1)N1CCCN(Cc2ccc(F)cc2)C1	72.2	
S=C(NCc1ccc(Cl)cc1)Nc1ccncc1	15.9	
CN(C)CCCN(C(=O)CCc1ccccc1)c1nc2ccc(Cl)cc2s1	< 0.15	
C1=C(CCNc2ncnc3c2[nH]c2ccccc23)CCCC1	106	

Structure (SMILES)	IC50 [1] [µM]	inhibition [2]
O=C1C2=C(Nc3ccccc3SC2c2ccco2)c2ccccc21 (stereo not drawn)	16.8	
COc1cccc(NC(=S)NCc2ccc(Cl)cc2)c1		-3.63% (inactive)
O=C(Nc1ccc(Cl)cc1)N1CCCN(Cc2ccc(F)cc2)C1	61.4	
O=C(Nc1nnc(-c2cccs2)o1)c1cccc(C(F)(F)F)c1	80.1	
S=C(NCc1ccc(Cl)cc1)Nc1cccnc1		-36.6% (inactive)
O=C1C2=C(Nc3ccccc3SC2c2ccc(I)cc2)c2ccccc21 (stereo not drawn)	3.67	
Cc1ccc(NC(=S)NCc2ccc(Cl)cc2)cc1		13.6% (inactive)
O=C1c2ccccc2C2=Nc3ccccc3SC(c3ccccc3F)C12 (stereo not drawn)	< 0.15	
COc1ccc(CNC(=S)Nc2ccncc2)cc1	48.1	
O=C(Nc1ccccc1Cl)N1CCCN(Cc2ccccc2F)C1		16.8% (inactive)
O=c1c2ccccc2[nH]c2ccc(F)cc12	< 0.15	
COc1ccccc1NC(=O)N1CCCN(Cc2ccccc2F)C1	136	
O=C(O)c1cn(-c2ccc(F)cc2)c2cc(Cl)c(F)cc2c1=O	< 0.15	
CCn1cc(C(=O)O)c(=O)c2cc(F)c(N3CCN(C(=S)NC(=O)c4ccccc4F)CC3)cc21	95.9	
CCCCCNC(=O)c1cn(CC)c2cc(N3CCN(C)CC3)c(F)cc2c1=O	< 0.15	
CCn1cc(C(=O)O)c(=O)c2cc(F)c(N3CCN(C(=S)Nc4ccc(Cl)cc4)CC3)cc21	60.8	
S=C(NCc1ccc(Cl)cc1)Nc1cccc(Cl)c1		29.4% (inactive)
CN1CCN(C2=Cc3cc(Cl)ccc3Sc3cc(F)ccc32)CC1	53.7	
CCOc1ccc(NC(=S)N2CCN(c3cc4c(cc3F)c(=O)c(C(=O)O)cn4CC)CC2)cc1	47.6	
O=C(Nc1ccccc1)N1CCCN(Cc2ccccc2F)C1		28.7% (inactive)
O=C(Nc1ccc(Br)cc1)N1CCCN(Cc2ccccc2F)C1	61.6	
CCn1cc(C(=O)O)c(=O)c2cc(F)c(N3CCN(C(=S)Nc4ccccc4C(F)(F)F)CC3)cc21	24.1	
S=C(NCc1ccccc1Cl)Nc1ccncc1	131	
O=C(NCc1ccccc1)N1CCCN(Cc2ccccc2F)C1		6.93% (inactive)
O=C1C2=C(Nc3ccccc3SC2c2ccc(C(F)(F)F)cc2)c2ccccc21 (stereo not drawn)	< 2.35	
Cc1ccc(Nc2cc(C)c3c(O)cccc3n2)cc1C	9.67	
